Data on three compounds can be found in patent publication US10555987B2, “GHRH agonists for the treatment of ischemic disorders” (UNIVERSITY OF MIAMI, priority 2012, dated 2020).

Molecules are shown by their SMILES. Marks after values point to notes of the source that are not given here. Non-standard residues stand in square brackets, D forms with d. Residues, ends and D or L forms follow the SMILES beside them. *: point of attachment. Desaminotyrosyl = O=C(CCc1ccc(O)cc1)*; NMeY = CN[C@@H](Cc1ccc(O)cc1)C(=O)O; Nle = CCCC[C@H](N)C(=O)O; Orn = NCCC[C@H](N)C(=O)O; Abu = CC[C@H](N)C(=O)O; Ava = NCCCCC(=O)O

Test [1] addresses T1, GHRH receptor (Homo sapiens, UniProt Q02643).
T1 sequence (Q02643 23-423): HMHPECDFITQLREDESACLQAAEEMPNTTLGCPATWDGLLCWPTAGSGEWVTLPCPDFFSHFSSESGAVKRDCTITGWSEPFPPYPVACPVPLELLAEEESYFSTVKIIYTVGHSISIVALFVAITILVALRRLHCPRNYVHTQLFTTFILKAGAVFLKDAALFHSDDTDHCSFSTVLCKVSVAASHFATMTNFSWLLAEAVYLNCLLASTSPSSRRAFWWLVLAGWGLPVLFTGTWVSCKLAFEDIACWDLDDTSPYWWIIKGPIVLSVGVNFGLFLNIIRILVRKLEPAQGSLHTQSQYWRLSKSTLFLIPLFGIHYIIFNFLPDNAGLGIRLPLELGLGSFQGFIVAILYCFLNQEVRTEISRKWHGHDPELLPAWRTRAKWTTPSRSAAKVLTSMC
The test can be described thus: Receptor binding in vitro, 125I-labeled [His1,Nle27]-hGHRH(1-32)NH2, membrane receptors of human anterior pituitary cells (Table 14). As to conditions: for Relative affinity (Binding potency) compared to JI-38: JI-38 = 1; for Relative affinity (Binding potency) compared to hGHRH(1-29): hGHRH(1-29)NH2 = 1.
Description: Normal human pituitary was purchased from the National Hormone and Peptide Program (UCLA Medical Center, Torrance, Calif.).

The test system of test [2] is GH release. Kind of test: GH releasing potency in vivo, subcutaneous administration (Example 14, Table 12). On the set-up: species or system rat. To be noted: s.c.; for Serum GH level at selected time after injection (ng/ml), 0 min / Serum GH level at selected time after injection (ng/ml), 15 min / Serum GH level at selected time after injection (ng/ml), 30 min: male rats, dose 3 μg/kg, mean ± SEM. As for the experimental part: Male Sprague-Dawley rats, weighing 200-250 g, were purchased from Charles River Laboratory (Wilmington, Mass.) and used for experiments. All animal procedures were approved by the Veterans Affairs Animal Care and Use Committee and were conducted in accordance with additional institutional guidelines as well. Briefly, groups of 5-6 animals were used in each experiment. The rats were anesthetized with 50 mg/kg of sodium pentobarbital (Nembutal, Lundbeck Inc., Deerfield, Ill.). Twenty min after inducing anesthesia, GHRH(1-29)NH2, JI-38, or new analogs were injected into the animals intravenously (i.v.) or subcutaneously (s.c.). The peptides were dissolved in 0.01 M acetic acid to get 1 μg/μl stock solution, and then diluted with 5% mannitol. Control rats received 5% mannitol only. Blood samples were collected from the jugular vein at selected times and were used for serum preparation. Concentrations of GH in rat sera were determined by ELISA. The relative potencies of tested peptides were calculated using GHRH(1-29)NH2 and JI-38 for comparison, whose potency was defined as 1. The equivalent dosage of GHRH(1-29)NH2 to reach the same level of serum growth hormone release after injection of the specific tested peptide was determined from a GHRH(1-29)NH2 standard curve using Origin 6.0 software. […] Serum GH was determined using the rat Growth Hormone ELISA kit (ALPCO Diagnostics, Mill Valley, Calif.) according to the manufacturer's instruction. Absorbance at 405 nm was measured by a Victor 3 Multi-label Counter (Perkin-Elmer, Waltham, Md.).

The subject of test [3] is GH release. The test can be described thus: In vivo endocrine activity, GH release after subcutaneous administration (Table 9). To be noted: rat, subcutaneous (s.c.) injection. On the procedure: Subcutaneous Administration. Adult male rats were used and anesthetized with pentobarbital (6 mg/100 g, b.w.), by i.p. injection. […] Blood samples were taken from the jugular vein 5, 15 and/or 30 minutes after the injection. The blood samples were centrifuged, plasma was removed and the GH level was measured byELISA. The results are summarized in terms of potency in Table 9.

In test [4] the target is T1, GHRH receptor. The test can be described thus: GHRH receptor binding, competition with 125I-labeled JV-1-42, human pituitary membrane homogenates (Table 7). The arrangement: Normal human pituitaries were purchased from the National Hormone and Peptide Program; tissue National Hormone and Peptide Program (A.F. Parlow, Harbor-UCLA Medical Center, Torrance, Calif.); host or cells: normal human pituitary, membrane fraction. To be noted: for Relative affinity (Binding potency) vs JI-38: JI-38 = 1, Table 7. From the text:
Normal human pituitaries were purchased from the National Hormone and Peptide Program (A.F. Parlow, Los Angeles, County Harbor-UCLA Medical Center, Torrance, Calif.).

As for `CCCC[C@H](NC(=O)[C@@H](NC(=O)[C@H](CC(=O)O)NC(=O)[C@H](CCC(N)=O)NC(=O)[C@H](CC(C)C)NC(=O)[C@H](CC(C)C)NC(=O)[C@H](CCCN)NC(=O)[C@H](CCCNC(=N)N)NC(=O)[C@H](C)NC(=O)[C@H](CO)NC(=O)[C@H](CC(C)C)NC(=O)[C@H](CCC(N)=O)NC(=O)[C@H](CC)NC(=O)[C@H](CC(C)C)NC(=O)[C@@H](NC(=O)[C@H](CCCN)NC(=O)[C@H](CCCNC(=N)N)NC(=O)[C@H](Cc1ccc(O)cc1)NC(=O)[C@H](CO)NC(=O)[C@H](CCC(N)=O)NC(=O)[C@@H](NC(=O)[C@H](Cc1ccccc1)NC(=O)[C@@H](NC(=O)[C@H](C)NC(=O)[C@H](CC(=O)O)NC(=O)[C@H](C)NC(=O)CCc1ccc(O)cc1)[C@@H](C)CC)[C@@H](C)O)C(C)C)[C@@H](C)CC)C(=O)N[C@@H](CC(=O)O)C(=O)N[C@@H](CCCNC(=N)N)C(=O)NCCCCC(N)=O` [Peptide P-22327, [Dat^1, Gln^8, Orn^12, Abu^15, Orn^21, Nle^27, Asp^28, Apa^30]hGHRH(1-30)NH2] (Desaminotyrosyl-ADAIFTQSYR[Orn]VL[Abu]QLSAR[Orn]LLQDI[Nle]DR[Ava]-NH2), on GHRH receptor [1], the “Relative affinity (Binding potency) compared to JI-38” value (“Relative affinity … to JI-38” for short) is 1.34 and the “Relative affinity (Binding potency) compared to hGHRH(1-29)” value (shortened to “Relative affinity … to hGHRH(1-29)”) is 3.75. In the test on GH release [2], the “Serum GH level at selected time after injection (ng/ml), 0 min” value was 31.5 ± 3.4 ng/mL; the “Serum GH level at selected time after injection (ng/ml), 15 min” value (from here on “Serum GH level at selected time … 15 min”) amounted to 258.7 ± 31.1 ng/mL; the “Serum GH level at selected time after injection (ng/ml), 30 min” value (shortened to “Serum GH level at selected time … 30 min”) was 138 ± 27.9 ng/mL; the “Relative potency compared to GHRH(1-29), 15 min” value came to 73.5. Further, in the test on GH release [2], the “Relative potency compared to JI-38, 15 min” value was 1.16; the “Relative potency compared to GHRH(1-29), 30 min” value was 126.5; the “Relative potency compared to JI-38, 30 min” value is recorded as 1.16. The “GH releasing potency relative to JI-38 (=1)” value in the test on GH release [3] (15 min after) was determined as 1.15. Further, in the test on GH release [3] (30 min after), the “GH releasing potency relative to JI-38 (=1)” value was found to be 1.30. The “Relative affinity (Binding potency) vs JI-38” value (“Relative affinity … vs JI-38” below) at GHRH receptor [4] is on record as 2.18.
For `CCCC[C@H](NC(=O)[C@@H](NC(=O)[C@H](CC(=O)O)NC(=O)[C@H](CCC(N)=O)NC(=O)[C@H](CC(C)C)NC(=O)[C@H](CC(C)C)NC(=O)[C@H](CCCN)NC(=O)[C@H](CCCNC(=N)N)NC(=O)[C@H](C)NC(=O)[C@H](CO)NC(=O)[C@H](CC(C)C)NC(=O)[C@H](CCC(N)=O)NC(=O)[C@H](CC)NC(=O)[C@H](CC(C)C)NC(=O)[C@@H](NC(=O)[C@H](CCCN)NC(=O)[C@H](CCCNC(=N)N)NC(=O)[C@H](Cc1ccc(O)cc1)NC(=O)[C@H](CO)NC(=O)[C@H](CCC(N)=O)NC(=O)[C@@H](NC(=O)[C@H](Cc1ccccc1)NC(=O)[C@@H](NC(=O)[C@H](C)NC(=O)[C@H](CC(=O)O)NC(=O)[C@H](C)NC(=O)[C@H](Cc1ccc(O)cc1)NC)[C@@H](C)CC)[C@@H](C)O)C(C)C)[C@@H](C)CC)C(=O)N[C@@H](CC(=O)O)C(=O)N[C@@H](CCCNC(=N)N)C(=O)NC` [Peptide P-27406, [N—Me-Tyr^1, Gln^8, Orn^12, Abu^15, Orn^21, Nle^27, Asp^28]hGHRH(1-29) NH—CH3] (H-[NMeY]ADAIFTQSYR[Orn]VL[Abu]QLSAR[Orn]LLQDI[Nle]DR-NHMe), on GHRH receptor [1], the “Relative affinity … to JI-38” value is 2.95 and the “Relative affinity … to hGHRH(1-29)” value was 8.22. Also, in the test on GH release [2], the “Serum GH level at selected time after injection (ng/ml), 0 min” value stood at 21.3 ± 4.8 ng/mL; the “Serum GH level at selected time … 15 min” value turned out to be 492.6 ± 21.8 ng/mL; the “Serum GH level at selected time … 30 min” value was found to be 282 ± 17.8 ng/mL; the “GH-releasing potency after s.c. administration (in words)” value is listed as “significantly higher potencies at 30 minutes than at 15 minutes”. Also, in the test on GH release [2], the “Relative potency compared to GHRH(1-29), 15 min” value came out at 170; the “Relative potency compared to JI-38, 15 min” value is 2.69*; the “Relative potency compared to GHRH(1-29), 30 min” value is given as 449.7. The “GH releasing potency relative to JI-38 (=1)” value with GH release [3] (15 min after) is listed as 0.47. Also, in the test with GH release [3] (30 min after), the “GH releasing potency relative to JI-38 (=1)” value is 0.50. The “Relative affinity … vs JI-38” value on GHRH receptor [4] came to 14.5.
On to `CCCC[C@H](NC(=O)[C@@H](NC(=O)[C@H](CC(=O)O)NC(=O)[C@H](CCC(N)=O)NC(=O)[C@H](CC(C)C)NC(=O)[C@H](CC(C)C)NC(=O)[C@H](CCCN)NC(=O)[C@H](CCCNC(=N)N)NC(=O)[C@H](C)NC(=O)[C@H](CO)NC(=O)[C@H](CC(C)C)NC(=O)[C@H](CCC(N)=O)NC(=O)[C@H](CC)NC(=O)[C@H](CC(C)C)NC(=O)[C@@H](NC(=O)[C@H](CCCN)NC(=O)[C@H](CCCNC(=N)N)NC(=O)[C@H](Cc1ccc(O)cc1)NC(=O)[C@H](CO)NC(=O)[C@H](CCC(N)=O)NC(=O)[C@@H](NC(=O)[C@H](Cc1ccccc1)NC(=O)[C@@H](NC(=O)[C@H](C)NC(=O)[C@H](CC(=O)O)NC(=O)[C@@H](C)NC(=O)CCc1ccc(O)cc1)[C@@H](C)CC)[C@@H](C)O)C(C)C)[C@@H](C)CC)C(=O)N[C@@H](CC(=O)O)C(=O)N[C@@H](CCCNC(=N)N)C(=O)NC` [Peptide P-27408, [Dat^1, D-Ala^2, Gln^8, Orn^12, Abu^15, Orn^21, Nle^27, Asp^28]hGHRH(1-30)NH—CH3] (Desaminotyrosyl-[dA]DAIFTQSYR[Orn]VL[Abu]QLSAR[Orn]LLQDI[Nle]DR-NHMe), for which, on GHRH receptor [1], the “Relative affinity … to JI-38” value turned out to be 0.53 and the “Relative affinity … to hGHRH(1-29)” value was determined as 1.21. Further, in the test with GH release [2], the “Serum GH level at selected time after injection (ng/ml), 0 min” value came to 37.6 ± 15.5 ng/mL; the “Serum GH level at selected time … 15 min” value came out at 213.3 ± 32.0 ng/mL; the “Serum GH level at selected time … 30 min” value turned out to be 121.2 ± 8.4 ng/mL; the “Relative potency compared to GHRH(1-29), 15 min” value was determined as 57.2. For the same compound, in the test on GH release [2], the “Relative potency compared to JI-38, 15 min” value amounted to 0.91; the “Relative potency compared to GHRH(1-29), 30 min” value is 100.5; the “Relative potency compared to JI-38, 30 min” value is 0.90. The same compound had an IC50 on GHRH receptor [4] (125I-JV-1-42, human pituitary membranes, Table 7) of 0.55 nM. Also, the “Relative affinity … vs JI-38” value on GHRH receptor [4] came to 7.91.

A word on the IC50: it is the concentration needed to halve the response being measured. Read a low IC50 as greater potency in that assay.
